Source: article PMC12210252 (2025)

Key:
[1] = test system: AptT4 (SH-5′-AptT4) (DNA, aptamer) CGCCGTTGGTGTTCGGTCAGGCTTCCGTGGCAACGGGGCAAAATGGTAATCGCGGGGAACC; experiment: SnS2 field-effect transistor, selectivity test; conditions: 137 mM NaCl, 2.7 mM KCl, 0.5 mM MgCl2; 1× PBS, pH 7.4; tested at 10 nM against 1 pM T4; low response
[2] = test system: AptT4 (SH-5′-AptT4) (DNA, aptamer) CGCCGTTGGTGTTCGGTCAGGCTTCCGTGGCAACGGGGCAAAATGGTAATCGCGGGGAACC; experiment: SnS2 field-effect transistor, Langmuir isotherm fit; conditions: 137 mM NaCl, 2.7 mM KCl, 0.5 mM MgCl2; 1× PBS (10 mM Na2HPO4, 2 mM KH2PO4), pH 7.4; aptamer immobilised with PEG

| binding [1] | K d [2] [pM] | SMILES |
| --- | --- | --- |
| no |  | CC(C)(c1ccc(O)cc1)c1ccc(O)cc1 |
|  | 14.4 ± 0.8 | N[C@@H](Cc1cc(I)c(Oc2cc(I)c(O)c(I)c2)c(I)c1)C(=O)O |
| no |  | N[C@@H](Cc1cc(I)c(Oc2ccc(O)c(I)c2)c(I)c1)C(=O)O |
